# Source: patent publication US6481154B1, “Method of large-scale propagation of trees of genus Swietenia” (Sumitomo Forestry Co., Ltd., priority 2000, dated 2002)
# How the values were obtained:
# Format in all cases: cell-based
# [1] = system: single shoots of Swietenia macrophylla; test: Rooting condition (1): modified B5 medium for 3 months
# Method: (§1) A large number of shoots obtained in (4) were cut to single shoots which were cultured in the following procedures:
# (1) The single shoots were cultured on a modified B5 medium containing 0 to 10.0 mg/l of IBA for 3 months, while transplanting the shoots to a fresh medium of the same composition every month.
# (§2) All the above (1)-(4) cultures were conducted under conditions wherein a temperature was 26±2° C., a humidity was 60 to 90% and a light intensity was 3,000 to 9,000 Lux. Further, all the modified media in the above (1)-(4) contained 2.8 g/l of gelright.
# [2] = system: single shoots of Swietenia macrophylla; test: Rooting conditions (3): modified MS, then modified B5, then modified MS, one month each; conditions: for Rooting rate (%) For first one month / Rooting rate (%) For second one month / Rooting rate (%) For third one month / Withering rate (%) For first one month / Withering rate (%) For second one month / Withering rate (%) For third one month: rooting conditions (3)
# Method: as §1
# (3) The single shoots were cultured on a modified MS medium containing 0 to 10.0 mg/l of IBA for one month, then on a modified B5 medium containing 0 to 10.0 mg/l of IBA for one month and further on a modified MS medium containing 0 to 10.0 mg/l of IBA for one month.
# as §2
# [3] = system: single shoots of Swietenia macrophylla; test: Rooting conditions (4): modified B5, then modified MS, then modified B5, one month each
# Method: as §1
# (4) The single shoots were cultured on a modified B5 medium containing 0 to 10.0 mg/l of IBA for one month, then on a modified MS medium containing 0 to 10.0 mg/l of IBA for one month and further on a modified B5 medium containing 0 to 10.0 mg/l of IBA for one month.
# as §2
structure (smiles),measurement,setting,value
"O=C(O)CCCc1c[nH]c2ccccc12 [IBA, 3-indole butyric acid]",Rooting rate (%) For first one month,[1]; IBA 0.1 mg/l,0.0%
same,Rooting rate (%) For second one month,[1]; IBA 0.1 mg/l,0.0%
same,Rooting rate (%) For third one month,[1]; IBA 0.1 mg/l,0.0%
same,Withering rate (%) For first one month,[1]; IBA 0.1 mg/l,84.6%
same,Withering rate (%) For second one month,[1]; IBA 0.1 mg/l,100.0%
same,Withering rate (%) For third one month,[1]; IBA 0.1 mg/l,100.0%
same,Rooting rate (%) For first one month,[1]; IBA 1.0 mg/l,0.0%
same,Rooting rate (%) For second one month,[1]; IBA 1.0 mg/l,3.7%
same,Rooting rate (%) For third one month,[1]; IBA 1.0 mg/l,3.7%
same,Withering rate (%) For first one month,[1]; IBA 1.0 mg/l,14.8%
same,Withering rate (%) For second one month,[1]; IBA 1.0 mg/l,55.6%
same,Withering rate (%) For third one month,[1]; IBA 1.0 mg/l,96.3%
same,Rooting rate (%) For first one month,[1]; IBA 2.0 mg/l,0.0%
same,Rooting rate (%) For second one month,[1]; IBA 2.0 mg/l,6.7%
same,Rooting rate (%) For third one month,[1]; IBA 2.0 mg/l,6.7%
same,Withering rate (%) For first one month,[1]; IBA 2.0 mg/l,13.3%
same,Withering rate (%) For second one month,[1]; IBA 2.0 mg/l,40.0%
same,Withering rate (%) For third one month,[1]; IBA 2.0 mg/l,73.3%
same,Rooting rate (%) For first one month,[1]; IBA 2.5 mg/l,0.0%
same,Rooting rate (%) For second one month,[1]; IBA 2.5 mg/l,18.5%
same,Rooting rate (%) For third one month,[1]; IBA 2.5 mg/l,18.5%
same,Withering rate (%) For first one month,[1]; IBA 2.5 mg/l,11.1%
same,Withering rate (%) For second one month,[1]; IBA 2.5 mg/l,40.7%
same,Withering rate (%) For third one month,[1]; IBA 2.5 mg/l,66.7%
same,Rooting rate (%) For first one month,[1]; IBA 3.0 mg/l,0.0%
same,Rooting rate (%) For second one month,[1]; IBA 3.0 mg/l,0.0%
same,Rooting rate (%) For third one month,[1]; IBA 3.0 mg/l,0.0%
same,Withering rate (%) For first one month,[1]; IBA 3.0 mg/l,26.9%
same,Withering rate (%) For second one month,[1]; IBA 3.0 mg/l,57.7%
same,Withering rate (%) For third one month,[1]; IBA 3.0 mg/l,73.1%
same,Rooting rate (%) For first one month,[1]; IBA 4.0 mg/l,0.0%
same,Rooting rate (%) For second one month,[1]; IBA 4.0 mg/l,4.0%
same,Rooting rate (%) For third one month,[1]; IBA 4.0 mg/l,4.0%
same,Withering rate (%) For first one month,[1]; IBA 4.0 mg/l,40.0%
same,Withering rate (%) For second one month,[1]; IBA 4.0 mg/l,72.0%
same,Withering rate (%) For third one month,[1]; IBA 4.0 mg/l,100.0%
same,Rooting rate (%) For first one month,[1]; IBA 5.0 mg/l,0.0%
same,Rooting rate (%) For second one month,[1]; IBA 5.0 mg/l,0.0%
same,Rooting rate (%) For third one month,[1]; IBA 5.0 mg/l,0.0%
same,Withering rate (%) For first one month,[1]; IBA 5.0 mg/l,53.8%
same,Withering rate (%) For second one month,[1]; IBA 5.0 mg/l,84.6%
same,Withering rate (%) For third one month,[1]; IBA 5.0 mg/l,100.0%
same,Rooting rate (%) For first one month,[1]; IBA 10.0 mg/l,0.0%
same,Rooting rate (%) For second one month,[1]; IBA 10.0 mg/l,0.0%
same,Rooting rate (%) For third one month,[1]; IBA 10.0 mg/l,0.0%
same,Withering rate (%) For first one month,[1]; IBA 10.0 mg/l,80.8%
same,Withering rate (%) For second one month,[1]; IBA 10.0 mg/l,96.2%
same,Withering rate (%) For third one month,[1]; IBA 10.0 mg/l,100.0%
same,effectiveness versus continuous culture on a single kind of medium,"[2]; 2.5 mg/l of IBA, modified MS, modified B5, modified MS, one month each",more effective
same,effectiveness for rooting,"[2]; 2.5 mg/l of IBA, procedure (3)",particularly effective
same,Rooting rate (%) For first one month,[2]; IBA 0.1 mg/l,0.0%
same,Rooting rate (%) For second one month,[2]; IBA 0.1 mg/l,0.0%
same,Rooting rate (%) For third one month,[2]; IBA 0.1 mg/l,0.0%
same,Withering rate (%) For first one month,[2]; IBA 0.1 mg/l,7.7%
same,Withering rate (%) For second one month,[2]; IBA 0.1 mg/l,73.1%
same,Withering rate (%) For third one month,[2]; IBA 0.1 mg/l,84.6%
same,Rooting rate (%) For first one month,[2]; IBA 1.0 mg/l,0.0%
same,Rooting rate (%) For second one month,[2]; IBA 1.0 mg/l,10.0%
same,Rooting rate (%) For third one month,[2]; IBA 1.0 mg/l,40.0%
same,Withering rate (%) For first one month,[2]; IBA 1.0 mg/l,0.0%
same,Withering rate (%) For second one month,[2]; IBA 1.0 mg/l,30.0%
same,Withering rate (%) For third one month,[2]; IBA 1.0 mg/l,50.0%
same,Rooting rate (%) For first one month,[2]; IBA 2.0 mg/l,0.0%
same,Rooting rate (%) For second one month,[2]; IBA 2.0 mg/l,10.0%
same,Rooting rate (%) For third one month,[2]; IBA 2.0 mg/l,40.0%
same,Withering rate (%) For first one month,[2]; IBA 2.0 mg/l,0.0%
same,Withering rate (%) For second one month,[2]; IBA 2.0 mg/l,30.0%
same,Withering rate (%) For third one month,[2]; IBA 2.0 mg/l,40.0%
same,Rooting rate (%) For first one month,[2]; IBA 2.5 mg/l,0.0%
same,Rooting rate (%) For second one month,[2]; IBA 2.5 mg/l,40.0%
same,Rooting rate (%) For third one month,[2]; IBA 2.5 mg/l,70.0%
same,Withering rate (%) For first one month,[2]; IBA 2.5 mg/l,0.0%
same,Withering rate (%) For second one month,[2]; IBA 2.5 mg/l,0.0%
same,Withering rate (%) For third one month,[2]; IBA 2.5 mg/l,20.0%
same,Rooting rate (%) For first one month,[2]; IBA 3.0 mg/l,0.0%
same,Rooting rate (%) For second one month,[2]; IBA 3.0 mg/l,10.0%
same,Rooting rate (%) For third one month,[2]; IBA 3.0 mg/l,30.0%
same,Withering rate (%) For first one month,[2]; IBA 3.0 mg/l,0.0%
same,Withering rate (%) For second one month,[2]; IBA 3.0 mg/l,50.0%
same,Withering rate (%) For third one month,[2]; IBA 3.0 mg/l,50.0%
same,Rooting rate (%) For first one month,[2]; IBA 4.0 mg/l,0.0%
same,Rooting rate (%) For second one month,[2]; IBA 4.0 mg/l,0.0%
same,Rooting rate (%) For third one month,[2]; IBA 4.0 mg/l,0.0%
same,Withering rate (%) For first one month,[2]; IBA 4.0 mg/l,20.0%
same,Withering rate (%) For second one month,[2]; IBA 4.0 mg/l,60.0%
same,Withering rate (%) For third one month,[2]; IBA 4.0 mg/l,80.0%
same,Rooting rate (%) For first one month,[2]; IBA 5.0 mg/l,0.0%
same,Rooting rate (%) For second one month,[2]; IBA 5.0 mg/l,0.0%
same,Rooting rate (%) For third one month,[2]; IBA 5.0 mg/l,0.0%
same,Withering rate (%) For first one month,[2]; IBA 5.0 mg/l,40.0%
same,Withering rate (%) For second one month,[2]; IBA 5.0 mg/l,50.0%
same,Withering rate (%) For third one month,[2]; IBA 5.0 mg/l,100.0%
same,Rooting rate (%) For first one month,[2]; IBA 10.0 mg/l,0.0%
same,Rooting rate (%) For second one month,[2]; IBA 10.0 mg/l,0.0%
same,Rooting rate (%) For third one month,[2]; IBA 10.0 mg/l,0.0%
same,Withering rate (%) For first one month,[2]; IBA 10.0 mg/l,50.0%
same,Withering rate (%) For second one month,[2]; IBA 10.0 mg/l,100.0%
same,Withering rate (%) For third one month,[2]; IBA 10.0 mg/l,100.0%
same,single shoots rooted,"[2]; procedure (3), 3 months after the start of culturing, 2.5 mg/l of IBA",70.0%
same,Rooting rate (%) For first one month,[3]; IBA 0.1 mg/l,0.0%
same,Rooting rate (%) For second one month,[3]; IBA 0.1 mg/l,0.0%
same,Rooting rate (%) For third one month,[3]; IBA 0.1 mg/l,0.0%
same,Withering rate (%) For first one month,[3]; IBA 0.1 mg/l,84.6%
same,Withering rate (%) For second one month,[3]; IBA 0.1 mg/l,88.5%
same,Withering rate (%) For third one month,[3]; IBA 0.1 mg/l,100.0%
same,Rooting rate (%) For first one month,[3]; IBA 1.0 mg/l,0.0%
same,Rooting rate (%) For second one month,[3]; IBA 1.0 mg/l,0.0%
same,Rooting rate (%) For third one month,[3]; IBA 1.0 mg/l,10.0%
same,Withering rate (%) For first one month,[3]; IBA 1.0 mg/l,10.0%
same,Withering rate (%) For second one month,[3]; IBA 1.0 mg/l,50.0%
same,Withering rate (%) For third one month,[3]; IBA 1.0 mg/l,70.0%
same,Rooting rate (%) For first one month,[3]; IBA 2.0 mg/l,0.0%
same,Rooting rate (%) For second one month,[3]; IBA 2.0 mg/l,10.0%
same,Rooting rate (%) For third one month,[3]; IBA 2.0 mg/l,10.0%
same,Withering rate (%) For first one month,[3]; IBA 2.0 mg/l,0.0%
same,Withering rate (%) For second one month,[3]; IBA 2.0 mg/l,40.0%
same,Withering rate (%) For third one month,[3]; IBA 2.0 mg/l,50.0%
same,Rooting rate (%) For first one month,[3]; IBA 2.5 mg/l,0.0%
same,Rooting rate (%) For second one month,[3]; IBA 2.5 mg/l,30.0%
same,Rooting rate (%) For third one month,[3]; IBA 2.5 mg/l,50.0%
same,Withering rate (%) For first one month,[3]; IBA 2.5 mg/l,0.0%
same,Withering rate (%) For second one month,[3]; IBA 2.5 mg/l,40.0%
same,Withering rate (%) For third one month,[3]; IBA 2.5 mg/l,40.0%
same,Rooting rate (%) For first one month,[3]; IBA 3.0 mg/l,0.0%
same,Rooting rate (%) For second one month,[3]; IBA 3.0 mg/l,10.0%
same,Rooting rate (%) For third one month,[3]; IBA 3.0 mg/l,20.0%
same,Withering rate (%) For first one month,[3]; IBA 3.0 mg/l,0.0%
same,Withering rate (%) For second one month,[3]; IBA 3.0 mg/l,60.0%
same,Withering rate (%) For third one month,[3]; IBA 3.0 mg/l,70.0%
same,Rooting rate (%) For first one month,[3]; IBA 4.0 mg/l,0.0%
same,Rooting rate (%) For second one month,[3]; IBA 4.0 mg/l,0.0%
same,Rooting rate (%) For third one month,[3]; IBA 4.0 mg/l,0.0%
same,Withering rate (%) For first one month,[3]; IBA 4.0 mg/l,40.0%
same,Withering rate (%) For second one month,[3]; IBA 4.0 mg/l,70.0%
same,Withering rate (%) For third one month,[3]; IBA 4.0 mg/l,100.0%
same,Rooting rate (%) For first one month,[3]; IBA 5.0 mg/l,0.0%
same,Rooting rate (%) For second one month,[3]; IBA 5.0 mg/l,0.0%
same,Rooting rate (%) For third one month,[3]; IBA 5.0 mg/l,0.0%
same,Withering rate (%) For first one month,[3]; IBA 5.0 mg/l,50.0%
same,Withering rate (%) For second one month,[3]; IBA 5.0 mg/l,90.0%
same,Withering rate (%) For third one month,[3]; IBA 5.0 mg/l,100.0%
same,Rooting rate (%) For first one month,[3]; IBA 10.0 mg/l,0.0%
same,Rooting rate (%) For second one month,[3]; IBA 10.0 mg/l,0.0%
same,Rooting rate (%) For third one month,[3]; IBA 10.0 mg/l,0.0%
same,Withering rate (%) For first one month,[3]; IBA 10.0 mg/l,70.0%
same,Withering rate (%) For second one month,[3]; IBA 10.0 mg/l,100.0%
same,Withering rate (%) For third one month,[3]; IBA 10.0 mg/l,100.0%
